Data on 3 compounds can be found in patent US20100234430A1, “METHODS AND PHARMACEUTICAL FORMULATIONS FOR PROTECTING PHARMACEUTICAL COMPOUNDS FROM ACIDIC ENVIRONMENTS” (priority 2001, published 2010).

The nature of data set [1]: Acid neutralization test of tablets, time for pH to rise to 7 (Example 1). It is filed as physicochemical. Conditions: 840 mg tablet, basket 75 rpm, 50 ml SGF + 50 ml water. On the procedure: 840 mg of each of magnesium hydroxide, tromethamine, and carbicarb were separately compressed into tablets utilizing a carver press having a 13 mm die at a 1 second dwell time and 500 pounds of compression force. Also, a first mixture containing 420 mg of magnesium hydroxide and 420 mg of tromethamine was also compressed into tablet-form using the method described above. Additionally, a second mixture containing 420 mg of magnesium hydroxide and 420 mg of carbicarb was compressed into tablet-form as previously described.
Each of the five different preparations was tested separately in the following manner. Tablets of each preparation were placed in a USP dissolution apparatus basket which was then attached to a spindle. The stirring component of the apparatus was set to rotate the basket at a speed of approximately 75 rpm. The loaded, rotating basket was then immersed into a beaker containing 50 ml of SGF and 50 ml of distilled de-ionized water. The pH of the medium in the beaker was monitored continuously throughout the test procedure utilizing a micro pH electrode.

Data set [2] can be described thus: Degradation of lansoprazole as a function of pH at 37 degrees C. The data set is classed as physicochemical. The following applies: for half-life: buffer. From the text:
For example, lansoprazole is a substituted benzimidaole that is an acid labile pharmaceutical compound that inhibits gastric acid secretions. The affect of gastric pH on the degradation of an acid-labile drug such as lansoprazole is conveyed in Table 1. The data shown in Table 1 was collected at 37 degrees C., wherein “K” reflects the first order degradation constant.

In the case of `[Mg+2].[OH-].[OH-]` [Magnesium hydroxide], the “Time to Raise the pH of SGF to 7 at 37 degrees C.” value in data set [1] worked out at 565 seconds.

Regarding `NC(CO)(CO)CO` [Tromethamine (TRIS), Tromethamine], the “Time to Raise the pH of SGF to 7 at 37 degrees C.” value in data set [1] is 75 seconds.

Turning to `Cc1c(OCC(F)(F)F)ccnc1C[S+]([O-])c1nc2ccccc2[nH]1` (centres unmarked) [lansoprazole], the half-life (as a rule, the time in which the quantity being followed falls by half) in data set [2] (pH 5, 37 degrees C.) is 0.52 h; in data set [2] (pH 6, 37 degrees C.) it was 3.4 h; in data set [2] (pH 7, 37 degrees C.), 18 h; in data set [2] (pH 8, 37 degrees C.) it was 37 h; in data set [2] (pH 9, 37 degrees C.), 78 h. Besides, the “% Drug Remaining After 30 Minutes” value is given as 51.37% in data set [2] (pH 5, 37 degrees C.); 90.30% in data set [2] (pH 6, 37 degrees C.); 98.10% in data set [2] (pH 7, 37 degrees C.); 99.10% in data set [2] (pH 8, 37 degrees C.); 99.57% in data set [2] (pH 9, 37 degrees C.). Also, the “K (first order degradation constant)” value in data set [2] (pH 5, 37 degrees C.) is listed as 1.33 hr.^−1; in data set [2] (pH 6, 37 degrees C.), 0.20 hr.^−1; in data set [2] (pH 7, 37 degrees C.), 0.04 hr.^−1; in data set [2] (pH 8, 37 degrees C.), 0.02 hr.^−1; in data set [2] (pH 9, 37 degrees C.) it was 0.01 hr.^−1.
